Assay results from PubChem BioAssay AID248 (DTP/NCI, 2004).
Inconclusive results and toxic doses are left out. Cut-off read from the data, not from the text of the source: active = T/C of 150% or more; inactive = T/C below 125%.

Test system: L1210 leukemia ip in BDF1 mice, survival T/C
Assay: NCI In Vivo Anticancer Drug Screen. Data for tumor model L1210 Leukemia (intraperitoneal) in B6D2F1 (BDF1) mice
Conditions: endpoint: mean survival time, higher = longer survival
Summary of the method: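 Tumor cells were implanted, animals were treated, and survival was followed. The result divides the treated measurement by the vehicle-control measurement.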

[1] = dose: 100.0 mg/kg/injection, schedule: Q01DX009 (ip), vehicle: Klucel (hydroxypropylcellulose) (HPC)
[2] = dose: 200.0 mg/kg/injection, schedule: Q01DX009 (ip), vehicle: Klucel (hydroxypropylcellulose) (HPC)
[3] = dose: 100.0 mg/kg/injection, schedule: Q01DX001 (ip), vehicle: saline
[4] = dose: 100.0 mg/kg/injection, schedule: Q04DX003 (ip), vehicle: Klucel (hydroxypropylcellulose) (HPC)
[5] = dose: 200.0 mg/kg/injection, schedule: Q04DX003 (ip), vehicle: Klucel (hydroxypropylcellulose) (HPC)
[6] = dose: 100.0 mg/kg/injection, schedule: Q01DX001 (ip), vehicle: carboxymethylcellulose (CMC)
[7] = dose: 200.0 mg/kg/injection, schedule: Q01DX001 (ip), vehicle: carboxymethylcellulose (CMC)
[8] = dose: 400.0 mg/kg/injection, schedule: Q01DX001 (ip), vehicle: carboxymethylcellulose (CMC)
[9] = dose: 100.0 mg/kg/injection, schedule: Q04DX002 (ip), vehicle: Klucel (hydroxypropylcellulose) (HPC)
[10] = dose: 200.0 mg/kg/injection, schedule: Q04DX002 (ip), vehicle: Klucel (hydroxypropylcellulose) (HPC)
[11] = dose: 400.0 mg/kg/injection, schedule: Q04DX002 (ip), vehicle: Klucel (hydroxypropylcellulose) (HPC)
[12] = dose: 50.0 mg/kg/injection, schedule: Q01DX001 (ip), vehicle: saline

Measured: T/C

CC(C)(CBr)C(=O)N1CCN(C(=O)C(C)(C)CBr)CC1
inactive: dose: 6.2 mg/kg/injection, schedule: Q01DX Z (ip), vehicle: carboxymethylcellulose (CMC) 109 % of control | dose: 9.2 mg/kg/injection, schedule: Q01DX Z (ip), vehicle: methylcellulose (MC) 94 % of control | dose: 9.4 mg/kg/injection, schedule: Q01DX Z (ip), vehicle: carboxymethylcellulose (CMC) 118 % of control | dose: 14.0 mg/kg/injection, schedule: Q01DX Z (ip), vehicle: carboxymethylcellulose (CMC) 116 % of control | dose: 14.0 mg/kg/injection, schedule: Q01DX Z (ip), vehicle: methylcellulose (MC) 103 % of control | dose: 21.0 mg/kg/injection, schedule: Q01DX Z (ip), vehicle: carboxymethylcellulose (CMC) 121 % of control | dose: 21.0 mg/kg/injection, schedule: Q01DX Z (ip), vehicle: methylcellulose (MC) 103 % of control | dose: 42.0 mg/kg/injection, schedule: Q01DX Z (ip), vehicle: methylcellulose (MC) 111 % of control | dose: 50.0 mg/kg/injection, schedule: Q01DX Z (ip), vehicle: methylcellulose (MC) 121 % of control | dose: 68.0 mg/kg/injection, schedule: Q01DX Z (ip), vehicle: methylcellulose (MC) 98 % of control

CC(=O)OCC1OC(N2C(=O)/C(=C/c3ccncc3)SC2=S)C(OC(C)=O)C(OC(C)=O)C1OC(C)=O (stereo not given)
inactive: dose: 25.0 mg/kg/injection, schedule: Q01DX005 (ip), vehicle: other 97 % of control | dose: 50.0 mg/kg/injection, schedule: Q01DX005 (ip), vehicle: other 94 % of control | dose: 100.0 mg/kg/injection, schedule: Q01DX005 (ip), vehicle: other 97 % of control | dose: 400.0 mg/kg/injection, schedule: Q01DX005 (ip), vehicle: other 86 % of control

COc1ccc(C[Si](C)C)cc1
inactive: dose: 100.0 mg/kg/injection, schedule: Q04DX003 (ip), vehicle: saline 93 % of control | dose: 200.0 mg/kg/injection, schedule: Q04DX003 (ip), vehicle: saline 98 % of control | dose: 400.0 mg/kg/injection, schedule: Q04DX003 (ip), vehicle: saline 94 % of control

COc1ccc(/C=C/c2cnccn2)cc1OC
inactive: [1] 101 % of control | [2] 101 % of control | dose: 400.0 mg/kg/injection, schedule: Q01DX009 (ip), vehicle: Klucel (hydroxypropylcellulose) (HPC) 106 % of control

Cc1cc(N=NC(=N)N)ccc1NN=C(N)N
inactive: dose: 37.5 mg/kg/injection, schedule: Q01DX Z (oral), vehicle: carboxymethylcellulose (CMC) 115 % of control | dose: 75.0 mg/kg/injection, schedule: Q01DX Z (oral), vehicle: carboxymethylcellulose (CMC) 100 % of control | dose: 150.0 mg/kg/injection, schedule: Q01DX Z (oral), vehicle: carboxymethylcellulose (CMC) 96 % of control | dose: 300.0 mg/kg/injection, schedule: Q01DX Z (oral), vehicle: carboxymethylcellulose (CMC) 102 % of control

Clc1ccc(CN2CCCN(C3CCCCC3)C2C2CCC=CO2)cc1 (stereo not given)
inactive: [3] 96 % of control

CCOC(=O)N1CCC2C(CC3CC2C3(C)C)N1C(=O)OCC (stereo not given)
inactive: dose: 50.0 mg/kg/injection, schedule: Q01DX009 (ip), vehicle: Klucel (hydroxypropylcellulose) (HPC) 103 % of control | [1] 101 % of control | [4] 97 % of control | [2] 101 % of control | [5] 101 % of control | dose: 400.0 mg/kg/injection, schedule: Q04DX003 (ip), vehicle: Klucel (hydroxypropylcellulose) (HPC) 99 % of control

CC1(C)NC(=O)N(C(C)(C)C(=O)O)C1=O
inactive: [6] 90 % of control | [7] 95 % of control | [8] 87 % of control

O=[N+]([O-])c1cccc(/C=N/N(c2ccccc2)C2CCS(=O)(=O)C2)c1 (stereo not given)
inactive: [9] 95 % of control | [10] 106 % of control | [11] 103 % of control

CCC[CH2][Pb]([CH2]CCC)([CH2]CCC)[n]1ccnc1
inactive: dose: 1.5 mg/kg/injection, schedule: Q01DX009 (ip), vehicle: Klucel (hydroxypropylcellulose) (HPC) 95 % of control | dose: 3.0 mg/kg/injection, schedule: Q01DX009 (ip), vehicle: Klucel (hydroxypropylcellulose) (HPC) 96 % of control | dose: 6.0 mg/kg/injection, schedule: Q01DX009 (ip), vehicle: Klucel (hydroxypropylcellulose) (HPC) 90 % of control | dose: 12.5 mg/kg/injection, schedule: Q04DX003 (ip), vehicle: Klucel (hydroxypropylcellulose) (HPC) 97 % of control | dose: 25.0 mg/kg/injection, schedule: Q04DX003 (ip), vehicle: Klucel (hydroxypropylcellulose) (HPC) 97 % of control | [12] 98 % of control | dose: 50.0 mg/kg/injection, schedule: Q04DX003 (ip), vehicle: Klucel (hydroxypropylcellulose) (HPC) 86 % of control | [3] 95 % of control | dose: 200.0 mg/kg/injection, schedule: Q01DX001 (ip), vehicle: saline 93 % of control

S=c1cc(S)c(=S)[nH][nH]1
inactive: dose: 5.0 mg/kg/injection, schedule: Q01DX001 (ip), vehicle: other 98 % of control | dose: 10.0 mg/kg/injection, schedule: Q01DX001 (ip), vehicle: other 96 % of control | dose: 20.0 mg/kg/injection, schedule: Q01DX001 (ip), vehicle: other 96 % of control

CCOC(=O)Nc1cc(N(C)CC(O)CN(C)c2ccccc2)c(N)c(N)n1 (stereo not given)
inactive: dose: 100.0 mg/kg/injection, schedule: Q01DX001 (ip), vehicle: Klucel (hydroxypropylcellulose) (HPC) 106 % of control | dose: 200.0 mg/kg/injection, schedule: Q01DX001 (ip), vehicle: Klucel (hydroxypropylcellulose) (HPC) 107 % of control | dose: 400.0 mg/kg/injection, schedule: Q01DX001 (ip), vehicle: Klucel (hydroxypropylcellulose) (HPC) 105 % of control

O=S(=O)(Nc1cc2c(nc3ccccn32)c2ccccc12)c1ccccc1
inactive: [12] 103 % of control

CC(=O)OC(Cc1nc2ccccc2s1)(C(F)(F)F)C(F)(F)F
inactive: dose: 3.13 mg/kg/injection, schedule: Q04DX002 (ip), vehicle: saline with Tween-80 97 % of control | dose: 6.25 mg/kg/injection, schedule: Q04DX002 (ip), vehicle: saline with Tween-80 91 % of control | dose: 12.5 mg/kg/injection, schedule: Q04DX002 (ip), vehicle: saline with Tween-80 97 % of control | dose: 25.0 mg/kg/injection, schedule: Q04DX002 (ip), vehicle: saline with Tween-80 94 % of control

OC(c1ccccc1)(c1ccccc1)c1ccccc1CNc1ccccc1
inactive: dose: 50.0 mg/kg/injection, schedule: Q01DX001 (ip), vehicle: carboxymethylcellulose (CMC) 102 % of control | [6] 88 % of control | [7] 102 % of control | [8] 96 % of control

Cc1no[n+]([O-])c1C(N)=O
inactive: [9] 98 % of control | [10] 95 % of control | [11] 98 % of control

NN1C(=O)c2ccccc2C1=O
inactive: dose: 100.0 mg/kg/injection, schedule: Q01DX009 (ip), vehicle: saline with Tween-80 100 % of control | dose: 200.0 mg/kg/injection, schedule: Q01DX009 (ip), vehicle: saline with Tween-80 95 % of control | dose: 400.0 mg/kg/injection, schedule: Q01DX009 (ip), vehicle: saline with Tween-80 92 % of control

CS(=O)(=O)Oc1ccc(Cl)c2ccccc12
inactive: [6] 98 % of control | [7] 101 % of control | [8] 95 % of control

OC1CCC2CCC(O)CC2C1 (stereo not given)
inactive: dose: 100.0 mg/kg/injection, schedule: Q04DX003 (ip), vehicle: saline with Tween-80 105 % of control | dose: 200.0 mg/kg/injection, schedule: Q04DX003 (ip), vehicle: saline with Tween-80 105 % of control | dose: 400.0 mg/kg/injection, schedule: Q04DX003 (ip), vehicle: saline with Tween-80 92 % of control

COc1cc(C)c(Cc2cnc(N)nc2N)cc1OC
inactive: [4] 97 % of control | [5] 89 % of control
